# Assay results published in patent publication US20190223443A1, “Methods to Increase Corn Growth” (Valent BioSciences LLC, priority 2015, published 2019).
# Assays:
# Assay type in all cases: in vivo
# Hybrid corn [1] = experiment: Vigor rating after foliar treatment at V2, field, Chabás, Santa Fe, Argentina (Example 1); conditions: 1 to 9 scale (untreated=5.0)
# Protocol: Hybrid corn was grown under conventional tillage in Chabás, Santa Fe, Argentina. At V2 growth stage, GA3 or a combination of GA3 and ABA was applied as a foliar treatment. Vigor was rated on a 1 to 9 scale (untreated=5.0) following spray applications at the times specified in Table 1.
# Hybrid corn [2] = experiment: Final yield, field, Chabás, Santa Fe, Argentina (Example 1); conditions: untreated 8096
# Hybrid corn [3] = experiment: Corn trial under conventional tillage, Lozada, Argentina, sprayed at V3, yield at harvest (Example 3); conditions: for Yield difference from control treatment: difference of the Yield (kg/ha) column; for Yield: untreated 3840
# Text: In a corn trial under conventional tillage in Lozada, Argentina, hybrid corn was planted and sprayed at 16 days post-planting at the V3 growth stage.
# [4] = test system: Hybrid 1 and Hybrid 2 corn; experiment: Field study Woodstock, Ill., sprayed at V2, shoot height (Examples 4 and 8); conditions: for Growth response to spray treatment (in words): sprayed at V2
# Protocol: (§1) A field study was conducted at Woodstock, Ill. Seeds of two commercial varieties were sown: Hybrid 1 was northern corn belt variety with 100 days to maturity, while Hybrid 2 was a central corn belt variety with 111 days to maturity. Corn of these two varieties was sown into cool soil on May 7, 2014. Plants were sprayed at V2 with solutions containing a non-ionic surfactant (0.25%, v/v) at 15 gallons of spray solution/acre and growth was followed for 14 days. At seven days and 14 days after treatment shoot heights in centimeters were measured for 60 plants in each replicate.
# as §1, with “GA3 refers to gibberellic acid” for “At seven days”, “ABA refers to abscisic acid. Results of the study are found in Table 10 below describing” for “14 days after treatment”, “height” for “heights”, “centimeters.” for “centimeters were measured for 60 plants in each replicate.”
# [5] = test system: Hybrid 1 and Hybrid 2 corn; experiment: Field study, sprayed at V4, plant height (Examples 5 and 9)
# Protocol: This study was conducted and the data analyzed as described above in Example 3 with the following the exceptions. The plants were sprayed at the V4 stage and plant height was measured at seven and 13 days post treatment.
# Another study was conducted and the data analyzed as described Example 8, above, with the following the exceptions. The plants were sprayed at the V4 stage and plant height was measured at seven and 13 days post treatment. Results of this study are found in Table 11, below, describing shoot height in centimeters.
# [6] = test system: Hybrid 1, Hybrid 2 and Hybrid 3 corn; experiment: Long Grove, Ill., sprayed at V4, distance of growing point relative to soil surface (Examples 6 and 10); conditions: for Distance of the growing point relative to the soil surface, 7 days post treatment / Distance of the growing point relative to the soil surface, 13 days post treatment / Distance of the growing point relative to the soil surface, 20 days post treatment / Distance of the growing point relative to the soil surface, 4 days post treatment: Table 7; for Distance of growing point relative to soil surface, 7 days post treatment / Distance of growing point relative to soil surface, 13 days post treatment / Distance of growing point relative to soil surface, 20 days post treatment / Distance of growing point relative to soil surface, 4 days post treatment: Table 12
# Protocol: In this example, seeds of three varieties were sown at Long Grove, Ill. and were grown under similar conditions as in Examples 3 to 6. Three hybrid corn varieties were grown, Hybrid 1 and 2 as above, and Hybrid 3 which was another central corn belt variety requiring 111 days to maturity.
# At the early V-stages, the growing point of the corn stem is below the soil surface and emerges from the soil when the plants are at V5 or later, depending on the variety. In spring, the soil is generally cooler than the air temperature. Therefore, there would be an advantage to getting the growing point above the soil surface to facilitate faster growth.
# The plants were sprayed at the V4 growth stage. Plants were dug from the ground at days after spray. Stems of five plants per replicate, three replicates per treatment were split and the distance of the growing point relative to the soil surface was determined in mm.
# Seeds of three varieties were sown at Long Grove, Ill. and were grown under similar conditions as in Example 8, above. Three hybrid corn varieties were grown, Hybrid 1 and 2 as described in Examples 8 and 9, above, and Hybrid 3 which was another central corn belt variety requiring 111 days to maturity. The plants were sprayed at the V4 growth stage. Plants were dug from the ground at days after spray. Stems of five plants per replicate, three replicates per treatment were split and the distance of the growing point relative to the soil surface was determined in mm. Results of this study are found in Table 12, below, describing distance of growing point relative to soil surface in millimeters.
# corn hybrid B73 X Mo17 = experiment: Greenhouse study Long Grove, Ill., sprayed at V1-V2, change in height and synergy (Example 7)
# Protocol: A greenhouse study was conducted at Long Grove, Ill. Seeds of the corn hybrid B73 X Mo17 was sown into potted soil on May 7, 2014. Plants were sprayed at 11 days post sowing (V1-V2) with solutions containing a non-ionic surfactant (0.25%, v/v) and growth was followed for 6 days. GA3 refers to gibberellic acid and ABA refers to abscisic acid. Results of the study described in 3. above can be seen in the following tables describing change in height in centimeters from day of treatment (Table 8) and change in height in centimeters from day of treatment compared to control (Table 9).
# Synergy is calculated as follows: […]
# Observed difference in height from control/Expected difference in height from control, where expected difference in height from control is the sum of the observed difference in height of each active ingredient applied alone. If the ratio between the experimentally observed efficacy of the mixture and the expected efficacy of the mixture is greater than 1, than synergistic interactions are present in the mixture.
# [7] = GA3 16 g/ha, mixtures plus ABA as labelled
# [8] = GA3 120 ppm, mixtures plus ABA 12 (10:1), 10 (12:1) or 8.6 ppm (14:1)
smiles,measurement,setting,value
"C=C1C[C@]23C[C@@]1(O)CC[C@H]2[C@@]12C=C[C@H](O)[C@@](C)(C(=O)O1)[C@H]2[C@@H]3C(=O)O [GA3, gibberellic acid]",Vigor 3 d post-spraying,Hybrid corn [1]; GA3 8 g/ha,5.2
same,Vigor 7 d post-spraying,Hybrid corn [1]; GA3 8 g/ha,5.3
same,Vigor 15 d post-spraying,Hybrid corn [1]; GA3 8 g/ha,5.5
same,Vigor 3 d post-spraying,Hybrid corn [1]; [7],5.5
same,Vigor 7 d post-spraying,Hybrid corn [1]; [7],5.6
same,Vigor 15 d post-spraying,Hybrid corn [1]; [7],6.0
same,Yield,Hybrid corn [2]; GA3 8 g/ha,8355 kg/ha
same,Yield,Hybrid corn [2]; [7],8769 kg/ha
same,Yield difference from control treatment,Hybrid corn [3]; GA3 8 g/ha,370
same,Yield,Hybrid corn [3]; GA3 8 g/ha,4210 kg/ha
same,Yield difference from control treatment,Hybrid corn [3]; [7],345
same,Yield,Hybrid corn [3]; [7],4185 kg/ha
same,"Shoot height, 7 days post treatment","[4]; Hybrid 1, Table 5, control 0:0 37.75",36.07 cm
same,"Shoot height, 14 days post treatment","[4]; Hybrid 1, Table 5, control 0:0 57.90",57.08 cm
same,"Shoot height, 7 days post treatment","[4]; Hybrid 1, Table 10, control 0:0 37.75",36.07 cm
same,"Shoot height, 14 days post treatment","[4]; Hybrid 1, Table 10, control 0:0 57.90",57.08 cm
same,Growth response to spray treatment (in words),[4]; Hybrid 1,did not respond
same,"Shoot height, 7 days post treatment","[4]; Hybrid 2, Table 5, control 0:0 29.56",31.33 cm
same,"Shoot height, 14 days post treatment","[4]; Hybrid 2, Table 5, control 0:0 50.16",51.20 cm
same,"Shoot height, 7 days post treatment","[4]; Hybrid 2, Table 10, control 0:0 29.56",31.33 cm
same,"Shoot height, 14 days post treatment","[4]; Hybrid 2, Table 10, control 0:0 50.16",51.20 cm
same,Growth response to spray treatment (in words),[4]; Hybrid 2,growth increased
same,"Plant height, 7 days post treatment","[5]; Hybrid 1, Table 6, control 0:0 76.50",78.60 cm
same,"Plant height, 13 days post treatment","[5]; Hybrid 1, Table 6, control 0:0 117.61",116.44 cm
same,"Shoot height, 7 days post treatment","[5]; Hybrid 1, Table 11, control 0:0 76.50",78.60 cm
same,"Shoot height, 13 days post treatment","[5]; Hybrid 1, Table 11, control 0:0 117.61",116.44 cm
same,"Plant height, 7 days post treatment","[5]; Hybrid 2, Table 6, control 0:0 63.76",68.25 cm
same,"Plant height, 13 days post treatment","[5]; Hybrid 2, Table 6, control 0:0 98.71",102.40 cm
same,"Shoot height, 7 days post treatment","[5]; Hybrid 2, Table 11, control 0:0 63.76",68.25 cm
same,"Shoot height, 13 days post treatment","[5]; Hybrid 2, Table 11, control 0:0 98.71",102.40 cm
same,"Distance of the growing point relative to the soil surface, 7 days post treatment","[6]; Hybrid 1, control 0:0 17.47",34.53 mm
same,"Distance of the growing point relative to the soil surface, 13 days post treatment","[6]; Hybrid 1, control 0:0 166.40",163.27 mm
same,"Distance of the growing point relative to the soil surface, 20 days post treatment","[6]; Hybrid 1, control 0:0 644.00",603.80 mm
same,"Distance of the growing point relative to the soil surface, 4 days post treatment","[6]; Hybrid 1, control 0:0 −1.13",4.20 mm
same,"Distance of growing point relative to soil surface, 7 days post treatment","[6]; Hybrid 1, control 0:0 17.47",34.53 mm
same,"Distance of growing point relative to soil surface, 13 days post treatment","[6]; Hybrid 1, control 0:0 166.40",163.27 mm
same,"Distance of growing point relative to soil surface, 20 days post treatment","[6]; Hybrid 1, control 0:0 644.00",603.80 mm
same,"Distance of growing point relative to soil surface, 4 days post treatment","[6]; Hybrid 1, control 0:0 −1.13",4.20 mm
same,"Distance of the growing point relative to the soil surface, 4 days post treatment","[6]; Hybrid 2, control 0:0 0.80",1.87 mm
same,"Distance of the growing point relative to the soil surface, 7 days post treatment","[6]; Hybrid 2, control 0:0 18.80",24.07 mm
same,"Distance of the growing point relative to the soil surface, 13 days post treatment","[6]; Hybrid 2, control 0:0 128.87",130.93 mm
same,"Distance of the growing point relative to the soil surface, 20 days post treatment","[6]; Hybrid 2, control 0:0 517.13",515.53 mm
same,"Distance of growing point relative to soil surface, 4 days post treatment","[6]; Hybrid 2, control 0:0 0.80",1.87 mm
same,"Distance of growing point relative to soil surface, 7 days post treatment","[6]; Hybrid 2, control 0:0 18.80",24.07 mm
same,"Distance of growing point relative to soil surface, 13 days post treatment","[6]; Hybrid 2, control 0:0 128.87",130.93 mm
same,"Distance of growing point relative to soil surface, 20 days post treatment","[6]; Hybrid 2, control 0:0 517.13",515.53 mm
same,"Distance of the growing point relative to the soil surface, 4 days post treatment","[6]; Hybrid 3, control 0:0 0.53",3.67 mm
same,"Distance of the growing point relative to the soil surface, 7 days post treatment","[6]; Hybrid 3, control 0:0 25.60",27.87 mm
same,"Distance of the growing point relative to the soil surface, 13 days post treatment","[6]; Hybrid 3, control 0:0 147.73",164.67 mm
same,"Distance of the growing point relative to the soil surface, 20 days post treatment","[6]; Hybrid 3, control 0:0 619.33",653.53 mm
same,"Distance of growing point relative to soil surface, 4 days post treatment","[6]; Hybrid 3, control 0:0 0.53",3.67 mm
same,"Distance of growing point relative to soil surface, 7 days post treatment","[6]; Hybrid 3, control 0:0 25.60",27.87 mm
same,"Distance of growing point relative to soil surface, 13 days post treatment","[6]; Hybrid 3, control 0:0 147.73",164.67 mm
same,"Distance of growing point relative to soil surface, 20 days post treatment","[6]; Hybrid 3, control 0:0 619.33",653.53 mm
same,"Observed change in height from day of treatment compared to control, 2 days post treatment",corn hybrid B73 X Mo17; [8],3.13 cm
same,"Observed change in height from day of treatment compared to control, 4 days post treatment",corn hybrid B73 X Mo17; [8],4.97 cm
same,"Observed change in height from day of treatment compared to control, 6 days post treatment",corn hybrid B73 X Mo17; [8],7.21 cm
same,"Change in height from day of treatment, 2 days post treatment","corn hybrid B73 X Mo17; GA3 120 ppm, mixtures plus ABA 12 (10:1), 10 (12:1) or 8.6 ppm (14:1), control 9.74",12.87 cm
same,"Change in height from day of treatment, 4 days post treatment","corn hybrid B73 X Mo17; GA3 120 ppm, mixtures plus ABA 12 (10:1), 10 (12:1) or 8.6 ppm (14:1), control 22.59",27.56 cm
same,"Change in height from day of treatment, 6 days post treatment","corn hybrid B73 X Mo17; GA3 120 ppm, mixtures plus ABA 12 (10:1), 10 (12:1) or 8.6 ppm (14:1), control 43.03",50.24 cm
same,Height of the corn compared to the control (in words),"corn hybrid B73 X Mo17; applied alone, Tables 8 and 9",increased the height
